SMILES strings stand for the structures. Where a name gives a salt, the structure may show the parent alone.

T1 sequence (P08069 959-1367 limits assumed): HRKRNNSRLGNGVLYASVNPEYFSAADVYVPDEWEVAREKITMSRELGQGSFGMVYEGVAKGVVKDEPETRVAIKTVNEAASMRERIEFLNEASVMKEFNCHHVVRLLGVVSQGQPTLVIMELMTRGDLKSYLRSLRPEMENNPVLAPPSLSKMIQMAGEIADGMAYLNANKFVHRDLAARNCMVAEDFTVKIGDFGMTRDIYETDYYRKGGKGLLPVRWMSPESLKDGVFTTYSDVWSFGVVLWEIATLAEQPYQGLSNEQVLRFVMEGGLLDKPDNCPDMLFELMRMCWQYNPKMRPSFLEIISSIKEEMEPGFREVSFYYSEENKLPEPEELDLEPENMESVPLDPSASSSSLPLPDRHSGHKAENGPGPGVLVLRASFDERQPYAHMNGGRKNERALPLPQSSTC

The first test concerns the target T1, IGF-1R (Homo sapiens, UniProt P08069).
T1 construct: purchased Upstate Co. 14-465
The test can be described thus: IGF-1R inhibitory activity (kinase reaction, time-resolved fluoroimmunoassay). The format is biochemical. To be noted: IGF-1R active recombinant enzyme, test compound 10 μmol/L. Here is the method:
The IGF-1R inhibitory activity was measured in the following manner.
As IGF-1R, active recombinant enzyme (Catalog No. 14-465) purchased from Upstate Co., was used. To 96 well plate (FIA-PLATE BLACK 96 well FALT-BOTTOM HIGH BINDING, Greiner Bio-one, Catalog No. 655077) coated with NeutroAvidin (Pierce, Catalog No. 31000), biotinylated polyglutamic acid-tyrosine peptide (Nihon Schering K.K., Catalog No. 61GT0BAA) was immobilized and then blocked with 0.25% gelatin to be used as a plate for measuring the kinase reaction. Separately was prepared a solution containing at final concentrations, IGF-1R (200 μg/L), Tris.HCl(pH 7.5)(20 mmol/L), Na3VO4(0.1 mmol/L), MgCl2(1 mmol/L), MnCl2(10 mmol/L), ATP(10 mmol/L), 2-mercaptoethanol (0.04%), BSA(Bovine Serum Albumin) (0.1%), DMSO(0.1%), test compound (10 μmol/L). The solution (each 50 μL) was added to the well of the plate for measuring the kinase reaction and then, enzyme reaction was performed for 30 minutes at 24° C. The plate was washed with TBS-T [10 mmol/L Tris Cl (pH 7.5), 150 mmol/L NaCl, 0.05% Tween 20 (Bio-Rad, Catalog No. 170-6531)] 4 times, then reacted with europium-labeled anti-phosphotyrosine antibody, further washed with TBS-T 4 times and then, measured with time-resolved fluoroimmunoassay (excitation wavelength 340 nm, measuring wavelength 615 nm). The value of a well to which the test compound had not been added was considered as 100% and that of a well where the enzyme and the test compound had not been added was considered as 0%. The relative activity (%) of the well which was added with enzyme and the test compound was measured and by subtracting the calculated value from 100, IGF-1R inhibitory activity of the test compound (%) was determined.
`O=C(c1cnc(Nc2ccccc2/C=C/c2n[nH]c3ccccc23)s1)N1CCC(O)CC1` [Compound 171, (E)-4-hydroxy-1-{2-[2-(2-(1H-indazol-3-yl)vinyl)phenylamino]thiazole-5-ylcarbonyl}piperidine]: the inhibition (commonly the drop in the measured response relative to a control, in per cent) at 10 µM came out at 87.2%.

With `CCNc1ccc2c(c1)C(=O)N(c1ccccc1/C=C/c1n[nH]c3ccccc13)C2=O` [Compound 201, (E)-5-ethylamino-2-{2-[2-(1H-indazol-3-yl)vinyl]phenyl}isoindole-1,3-dione], the inhibition at 10 µM was 99.1%. The same measure, in the same setting: the value for `O=C1c2ccccc2C(=O)N1c1cc(Cl)ccc1/C=C/c1n[nH]c2ccccc12` [Compound 258, (E)-2-{5-chloro-2-[2-(1H-indazol-3-yl)vinyl]phenyl}isoindole-1,3-dione] was 100%; that for `O=C1CNC(=O)N1c1ccccc1/C=C/c1n[nH]c2ccccc12` [Compound 212, (E)-3-{2-[2-(1H-indazol-3-yl)vinyl]phenyl}imidazolidine-2,4-dione] was 83.6%; that for `C(=C\c1n[nH]c2ccccc12)/c1ccccc1Nc1ncccn1` [Compound 163, (E)-N-{2-[2-(1H-indazol-3-yl)vinyl]phenyl}-2-pyrimidylamine] was 100%. For `Cc1ccc(C)n1-c1ccccc1/C=C/c1n[nH]c2ccccc12` [Compound 190], the “inhibitory activity (%) at 10 μmol/L” value stood at 96.9%. Consider `C(=C\c1n[nH]c2ccccc12)/c1ccccc1-n1ccc(CN2CCOCC2)c1` [Compound 182, (E)-3-{2-[2-(3-morpholin-4-ylmethylpyrrol-1-yl)phenyl]vinyl}-1H-indazole], for which the inhibition at 10 µM is 97.9%.

`CN(C)CCN(C)Cc1ccn(-c2ccccc2/C=C/c2n[nH]c3ccccc23)c1` [Compound 188, (E)-N-(1-{2-[2-(1H-indazol-3-yl)vinyl]phenyl}-1H-pyrrol-3-ylmethyl)-N,N′,N′-trimethylethane-1,2-diamine]: the inhibition at 10 µM is 99.4%. Take `O=C(c1ccc(/C=C/c2n[nH]c3ccccc23)c(N2C(=O)c3ccccc3C2=O)c1)N1CCN(CCO)CC1` [Compound 286, (E)-2-[5-[4-(2-hydroxyethyl)piperazin-1-ylcarbonyl]-2-[2-(1H-indazol-3-yl)vinyl]phenyl]isoindole-1,3-dione]: the inhibition at 10 µM was found to be 96.1%. On to `O=C(Nc1cc(C(=O)N2CCN(CCCO)CC2)ccc1/C=C/c1n[nH]c2ccccc12)c1ccco1` [Compound 291, (E)-N-{5-[4-(3-hydroxypropyl)piperazin-1-ylcarbonyl]-2-[2-(1H-indazol-3-yl)vinyl]phenyl}furan-2-carboxamide], for which the inhibition at 10 µM stood at 97.7%. With `Cc1ccsc1/C=N/c1ccccc1C=Cc1n[nH]c2ccccc12` [Compound 160, (E)-N-{2-[2-(1H-indazol-3-yl)vinyl]phenyl}(3-methylthiophen-2-ylmethylene)amine], the inhibition at 10 µM stood at 98.4%. Consider `O=C(Nc1ccccc1/C=C/c1n[nH]c2ccccc12)c1ccc(CN2CCOCC2)cc1` [Compound 80, (E)-N-{2-[2-(1H-indazol-3-yl)vinyl]phenyl}-4-(morpholin-4-ylmethyl)benzamide], for which the inhibition at 10 µM stood at 96.6%.

As to `O=C(c1ccc(/C=C/c2n[nH]c3ccccc23)c(N2C(=O)c3ccccc3C2=O)c1)N1CCOCC1` [Compound 276, (E)-N-{2-[2-(1H-indazol-3-yl)vinyl]-5-(morpholin-4-ylcarbonyl)phenyl}isoindole-1,3-dione], the inhibition at 10 µM stood at 99.6%.

Turning to `C(=C\c1n[nH]c2ccccc12)/c1ccccc1-c1nc2ccccc2o1` [Compound 183, (E)-2-{2-[2-(1H-indazol-3-yl)vinyl]phenyl}benzoxazole], the inhibition at 10 µM turned out to be 59.1%. Take `CN(C)C(=O)c1nc(-c2ccccc2/C=C/c2n[nH]c3ccccc23)no1` [Compound 176, (E)-N,N-dimethyl-3-{2-[2-(1H-indazol-3-yl)vinyl]phenyl}[1,2,4]oxadiazole-5-carboxamide]: the inhibition at 10 µM came to 100%. The same measure, in the same setting: the same measure for `Nc1cccc2c1CN(c1cc(CN3CCN(CCCO)CC3)ccc1/C=C/c1n[nH]c3ccccc13)C2=O` [Compound 314, (E)-4-amino-2-{5-[4-(3-hydroxypropyl)piperazin-1-ylmethyl]-2-[2-(1H-indazol-3-yl)vinyl]phenyl}-2,3-dihydroisoindole-1-one]: 102%; for `O=C(Nc1ccccc1/C=C/c1n[nH]c2ccccc12)c1ccc([N+](=O)[O-])s1` [Compound 51, (E)-N-{2-[2-(1H-indazol-3-yl)vinyl]phenyl}-5-nitrothiophene-2-carboxamide]: 100%. Same read-out and setting: the value for `Cc1ccsc1C(=O)Nc1ccc(N2CCOCC2)cc1/C=C/c1n[nH]c2ccccc12` [Compound 225, (E)-N-{2-[2-(1H-indazol-3-yl)vinyl]-4-(morpholin-4-yl)phenyl}-3-methylthiophene-2-carboxamide hydrochloride] was 95%. Same read-out and setting: the value for `OCc1csc(Nc2ccccc2/C=C/c2n[nH]c3ccccc23)n1` [Compound 173, (E)-2-{2-[2-(1H-indazol-3-yl)vinyl]phenylamino}thiazole-4-methanol] was 97.8%.

As for `Cc1ccsc1C(=O)Nc1cc(C(=O)N2CC[C@@H](N)C2)ccc1/C=C/c1n[nH]c2ccccc12` [Compound 221, (E)-(R)—N-{2-[2-(1H-indazol-3-yl)vinyl]-5-(3-aminopyrrolidin-1-ylcarbonyl)phenyl}-3-methylthiophene-2-carboxamide hydrochloride], the inhibition at 10 µM is 95.8%. Regarding `OCCNCc1ccn(-c2ccccc2/C=C/c2n[nH]c3ccccc23)c1` [Compound 187, (E)-2-(1-{2-[2-(1H-indazol-3-yl)vinyl]phenyl}-1H-pyrrol-3-ylmethylamino)ethanol], the inhibition at 10 µM amounted to 98.2%. Take `Nc1cccc2c1CN(c1cc(C(=O)N3CCOCC3)ccc1/C=C/c1n[nH]c3ccccc13)C2=O` [Compound 324, (E)-4-amino-2-{2-[2-(1H-indazol-3-yl)vinyl]-5-(morpholin-4-ylcarbonyl)phenyl}-2,3-dihydroisoindole-1-one]: the inhibition at 10 µM worked out at 102%. For `O=C1c2cccnc2C(=O)N1c1ccccc1/C=C/c1n[nH]c2ccccc12` [Compound 205, (E)-6-{2-[2-(1H-indazol-3-yl)vinyl]phenyl}pyrrolo[3,4-b]pyridine-5,7-dione], the inhibition at 10 µM turned out to be 89.8%.

For the compound `CN(C)CCNCc1ccn(-c2ccccc2/C=C/c2n[nH]c3ccccc23)c1` [Compound 186, (E)-N′-(1-{2-[2-(1H-indazol-3-yl)vinyl]phenyl}-1H-pyrrol-3-ylmethyl)-N,N-dimethylethane-1,2-diamine], the inhibition at 10 µM worked out at 102%. As for `Nc1ccc2oc(-c3ccccc3/C=C/c3n[nH]c4ccccc34)nc2c1` [Compound 185, (E)-2-{2-[2-(1H-indazol-3-yl)vinyl]phenyl}benzoxazol-5-ylamine], the inhibition at 10 µM amounted to 93.2%.

Consider `CN1CCN(C(=O)c2ccc(/C=C/c3n[nH]c4ccccc34)c(N3Cc4cccc(N)c4C3=O)c2)CC1` [Compound 316, (E)-7-amino-2-{2-[2-(1H-indazol-3-yl)vinyl]-5-(4-methylpiperazin-1-ylcarbonyl)phenyl}-2,3-dihydroisoindole-1-one], for which the inhibition at 10 µM stood at 103%. On the same count and under the same terms, the same measure for `C(=C\c1n[nH]c2ccccc12)/c1ccccc1-n1ccc(CNCC2CC2)c1` [Compound 189, (E)-3-cyclopropylmethylaminomethyl-1-{2-[2-(1H-indazol-3-yl)vinyl]phenyl}pyrrole]: 102%.

Staying with this test, now noted: test compound 10 μmol/L.
Take `Cc1ccsc1C(=O)Nc1cc(C(=O)N2CCC3(CC2)OCCO3)ccc1/C=C/c1n[nH]c2ccccc12.Cl` [Compound 129, (E)-N-{5-(1,4-dioxa-8-azaspiro[4,5]decane-8-carbonyl)-2-[2-(1H-indazol-3-yl)vinyl]phenyl}-3-methylthiophene-2-carboxamide hydrochloride]: the “inhibitory activity (%) at 10 μmol/L” value came out at 99.9%.

Regarding `CSc1ccc(C(=O)Nc2ccccc2/C=C/c2n[nH]c3ccccc23)cc1` [Compound 82, (E)-N-{2-[2-(1H-indazol-3-yl)vinyl]phenyl}-4-methylsulphanylbenzamide], the inhibition at 10 µM turned out to be 84.7%. For the compound `Cc1ccsc1C(=O)Nc1cc(C(=O)N2CCN(C)CC2)ccc1/C=C/c1n[nH]c2ccccc12.Cl` [Compound 128, (E)-N-{2-[2-(1H-indazol-3-yl)vinyl]-5-(4-methylpiperazine-1-ylcarbonyl)phenyl}-3-methylthiophene-2-carboxamide hydrochloride], the “inhibitory activity (%) at 10 μmol/L” value was found to be 98.8%. Same read-out and setting: the value for `CCN(CC)C(=O)c1ccc(/C=C/c2n[nH]c3ccccc23)c(NC(=O)c2sccc2C)c1.Cl` [Compound 124, (E)-N-{5-(N,N-diethylcarbamoyl)-2-[2-(1H-indazol-3-yl)vinyl]phenyl}-3-methylthiophene-2-carboxamide hydrochloride] was 98.9%.

Regarding `COCc1ccc(/C=C/c2n[nH]c3ccccc23)c(NC(=O)c2sccc2C)c1` [Compound 121, (E)-N-{2-[2-(1H-indazol-3-yl)vinyl]-5-(methoxymethyl)phenyl}-3-methylthiophene-2-carboxamide], the inhibition at 10 µM is 98.6%.

Values taken from patent publication US7605272B2, “IGF-1R inhibitor” (Kyowa Hakko Kirin Co., Ltd., priority 2005, dated 2009).
